In patent publication US10519133B2, “Vinyl compounds as FGFR and VEGFR inhibitors” (MEDSHINE DISCOVERY INC., priority 2015, dated 2019):

molecular target: T1, FGFR1 (Homo sapiens, UniProt P11362); test: Z′-LYTE Detection Kinase Assay, in vitro enzymatic activity; format: biochemical; settings: 0.6 nM FGFR1, 2 uM Tyr4 peptide, 10 uM ATP, 60 min 23° C.
T1 construct: purchased Invitrogen PV4105
Protocol: To measure enzyme activity by Z′-LYTE™ Detection Kinase Assay, and to evaluate the inhibitory effect of the compounds on FGFR1 using IC50 value of the compounds as an indicator. […]
Reaction Buffer: 50 mM Hepes (pH 7.5), 10 mM MgCl2, 1 mM EGTA, 0.01% Brij-35, 1 mM DTT, 2 mM MnCl2 0.6 nM FGFR1, 2 uM Tyr4 peptide and 10 uM ATP in reaction buffer (50 mM Hepes, pH 7.5, 10 mM MgCl2, 0.01% BRIJ-35, 1 mM EGTA, 4 mM MnCl2, 2 mM DTT). a. Diluting the compounds with DMSO to 10 mM, 3-fold dilution, 11 gradients, duplicate wells. b. Diluting the compound by 1:25 into middle plate at Bravo Automatic Liquid Station, then transferring 2.5 ul to the reaction plate to ensure the final DMSO concentration to be 1%. c. Transferring 5 ul of enzyme/substrate buffer into each well d. Using Multidrop Liquid Workstation to sequentially add ATP solution to each well e. Centrifuging at 1000 rpm for 1 minute f. Placing the reaction plate in an incubator at 23° C. to react for 60 min. a. Preparing a 1:128 mixture of Development Regent B and Development Buffer b. Adding 5 ul to each well and centrifuging at 1000 rpm for 1 minute c. Placing the reaction plate in a thermostat (23° C.) after centrifuging for 90 minutes, removing and reading on Envision (Perkin Elmer) Plate Reader
D. Analyzing Data: Analyzing Data Using XLFIT (IDBS) and Calculating IC50 Values for the Compounds.

T1 sequence (P11362 22-822): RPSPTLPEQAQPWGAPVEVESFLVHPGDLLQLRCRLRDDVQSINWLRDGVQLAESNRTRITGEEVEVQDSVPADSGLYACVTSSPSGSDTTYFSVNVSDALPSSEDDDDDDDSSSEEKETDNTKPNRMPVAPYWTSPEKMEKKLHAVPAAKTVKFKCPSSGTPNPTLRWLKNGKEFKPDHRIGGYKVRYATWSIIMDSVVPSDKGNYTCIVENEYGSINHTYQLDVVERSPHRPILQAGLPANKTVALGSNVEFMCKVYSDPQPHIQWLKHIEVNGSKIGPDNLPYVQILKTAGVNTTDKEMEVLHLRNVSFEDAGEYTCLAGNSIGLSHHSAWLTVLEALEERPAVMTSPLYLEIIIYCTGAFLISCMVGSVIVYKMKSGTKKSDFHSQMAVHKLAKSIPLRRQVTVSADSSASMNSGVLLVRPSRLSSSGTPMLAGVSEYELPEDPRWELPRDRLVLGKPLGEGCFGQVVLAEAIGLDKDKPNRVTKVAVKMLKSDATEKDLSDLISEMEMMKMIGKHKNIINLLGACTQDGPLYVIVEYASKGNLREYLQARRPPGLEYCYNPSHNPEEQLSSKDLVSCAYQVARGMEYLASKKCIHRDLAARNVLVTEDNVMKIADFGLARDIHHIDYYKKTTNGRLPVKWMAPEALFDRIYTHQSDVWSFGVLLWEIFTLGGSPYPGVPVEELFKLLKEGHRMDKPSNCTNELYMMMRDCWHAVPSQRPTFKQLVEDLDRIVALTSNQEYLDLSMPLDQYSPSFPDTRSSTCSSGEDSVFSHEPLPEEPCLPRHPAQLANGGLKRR

| SMILES | IC50 |
| --- | --- |
| C[C@@H](Oc1ccc2[nH]nc(/C=C(\F)c3ccc(CN[C@H]4C[C@H](O)C4)nc3)c2c1)c1c(Cl)cncc1Cl [Example 26] | 10 to 50 nM |
| C[C@@H](Oc1ccc2[nH]nc(/C=C(\F)c3ccc(OC4CCOCC4)nc3)c2c1)c1c(Cl)cncc1Cl [Example 36] | 50 to 1000 nM |
| C[C@@H](Oc1ccc2[nH]nc(/C=C(\F)c3ccc(O[C@H]4CCOC4)nc3)c2c1)c1c(Cl)cncc1Cl [Example 37] | 50 to 1000 nM |
| C[C@@H](Oc1ccc2[nH]nc(/C=C(\F)c3ccc(OC4CCNCC4)nc3)c2c1)c1c(Cl)cncc1Cl [Example 43] | ≤ 10 nM |
| CC(Oc1ccc2[nH]nc(/C=C/c3ccc(CN4CCOCC4)c4ccccc34)c2c1)c1c(Cl)cncc1Cl (stereo not drawn) [Example 56] | 50 to 1000 nM |
| C[C@@H](Oc1ccc2[nH]nc(/C=C/c3ccc(CNC4CCOCC4)nn3)c2c1)c1c(Cl)cncc1Cl [Example 68] | ≤ 10 nM |
| C[C@@H](Oc1ccc2[nH]nc(/C=C/c3ccc(CN4CCC(O)C4)nn3)c2c1)c1c(Cl)cncc1Cl (stereo partly drawn) [Example 69] | ≤ 10 nM |
| CC(Oc1ccc2[nH]nc(/C=C/c3ccc(N4CCN(C)CC4)nc3)c2c1)c1c(Cl)cncc1Cl (stereo not drawn) [Example 71] | 10 to 50 nM |
| CC(Oc1ccc2[nH]nc(/C=C/c3ccc(CN4CCC(O)CC4)cc3)c2c1)c1c(Cl)cncc1Cl (stereo not drawn) [Example 72] | ≤ 10 nM |
| CC(Oc1ccc2[nH]nc(/C=C/c3ccc(CN4CC[C@@H](N(C)C)C4)cc3)c2c1)c1c(Cl)cncc1Cl (stereo partly drawn) [Example 73] | ≤ 10 nM |
| CC(Oc1ccc2[nH]nc(/C=C/c3ccc(CN4CCC(CO)CC4)cc3)c2c1)c1c(Cl)cncc1Cl (stereo not drawn) [Example 74] | ≤ 10 nM |
| CC(Oc1ccc2[nH]nc(/C=C/c3ccc(CNC4CCOCC4)cc3)c2c1)c1c(Cl)cncc1Cl (stereo not drawn) [Example 78] | ≤ 10 nM |
| CC(Oc1ccc2[nH]nc(/C=C/c3ccc(CN4CCc5ccccc5C4)cc3)c2c1)c1c(Cl)cncc1Cl (stereo not drawn) [Example 80] | 50 to 1000 nM |
| CC(Oc1ccc2[nH]nc(/C=C/c3ccc(CN4CCCCC4)cc3)c2c1)c1c(Cl)cncc1Cl (stereo not drawn) [Example 81] | ≤ 10 nM |
| CC(Oc1ccc2[nH]nc(/C=C/c3ccc(CN4CCC(c5ccccc5)CC4)cc3)c2c1)c1c(Cl)cncc1Cl (stereo not drawn) [Example 82] | 50 to 1000 nM |
| CC(Oc1ccc2[nH]nc(/C=C/c3ccc(CN4CCN(c5ccccc5)CC4)cc3)c2c1)c1c(Cl)cncc1Cl (stereo not drawn) [Example 83] | 50 to 1000 nM |
| CC(Oc1ccc2[nH]nc(/C=C/c3ccc(CN(CCN(C)C)Cc4ccccc4)cc3)c2c1)c1c(Cl)cncc1Cl (stereo not drawn) [Example 86] | 50 to 1000 nM |

| SMILES | IC50 |
| --- | --- |
| CC(Oc1ccc2[nH]nc(/C=C/c3ccc(CNCc4ccccc4)cc3)c2c1)c1c(Cl)cncc1Cl (stereo not drawn) [Example 87] | 50 to 1000 nM |
| CC(Oc1ccc2[nH]nc(/C=C/c3ccc(CN4CCOC(CO)C4)cc3)c2c1)c1c(Cl)cncc1Cl (stereo not drawn) [Example 88] | 10 to 50 nM |
| CC(Oc1ccc2[nH]nc(/C=C/c3ccc(CN4CCC(Cc5ccccc5)CC4)cc3)c2c1)c1c(Cl)cncc1Cl (stereo not drawn) [Example 90] | 50 to 1000 nM |
| CCN(Cc1ccccc1)Cc1ccc(/C=C/c2n[nH]c3ccc(OC(C)c4c(Cl)cncc4Cl)cc23)cc1 (stereo not drawn) [Example 91] | 50 to 1000 nM |
| CC(Oc1ccc2[nH]nc(/C=C/c3ccc(CN4CCN(C)CC4)cc3)c2c1)c1c(Cl)cncc1Cl (stereo not drawn) [Example 93] | 10 to 50 nM |
| CC(Oc1ccc2[nH]nc(/C=C/c3ccc(CN(C)Cc4ccccc4)cc3)c2c1)c1c(Cl)cncc1Cl (stereo not drawn) [Example 94] | 50 to 1000 nM |
| CCN(Cc1ccccc1)Cc1ccc(/C=C/c2n[nH]c3ccc(OC(C)c4c(Cl)cncc4Cl)cc23)cc1 (stereo not drawn) [Example 95] | 50 to 1000 nM |
| CC1CN(Cc2ccc(/C=C/c3n[nH]c4ccc(OC(C)c5c(Cl)cncc5Cl)cc34)cc2)CCN1 (stereo not drawn) [Example 97] | ≤ 10 nM |
| CC(Oc1ccc2[nH]nc(/C=C/c3ccc(CNc4ccccc4)cc3)c2c1)c1c(Cl)cncc1Cl (stereo not drawn) [Example 99] | 50 to 1000 nM |
| CC(Oc1ccc2[nH]nc(/C=C/c3ccc(CN4CCCC(CO)C4)cc3)c2c1)c1c(Cl)cncc1Cl (stereo not drawn) [Example 101] | ≤ 10 nM |
| CC(Oc1ccc2[nH]nc(/C=C/c3ccc(CN4CCN(C(C)C)CC4)cc3)c2c1)c1c(Cl)cncc1Cl (stereo not drawn) [Example 102] | ≤ 10 nM |
| CNC(=O)C1CCN(Cc2ccc(/C=C/c3n[nH]c4ccc(OC(C)c5c(Cl)cncc5Cl)cc34)cc2)CC1 (stereo not drawn) [Example 103] | ≤ 10 nM |
| CCN(Cc1ccc(/C=C/c2n[nH]c3ccc(OC(C)c4c(Cl)cncc4Cl)cc23)cc1)C1CCCCC1 (stereo not drawn) [Example 104] | 50 to 1000 nM |
| CC(Oc1ccc2[nH]nc(/C=C/c3ccc(CN4CCC(O)C4)cc3)c2c1)c1c(Cl)cncc1Cl (stereo not drawn) [Example 106] | ≤ 10 nM |
| CC(Oc1ccc2[nH]nc(/C=C/c3ccc(CN4CCOC[C@@H]4C)cc3)c2c1)c1c(Cl)cncc1Cl (stereo partly drawn) [Example 107] | 50 to 1000 nM |
| CC1CN(Cc2ccc(/C=C/c3n[nH]c4ccc(OC(C)c5c(Cl)cncc5Cl)cc34)cc2)CC(C)O1 (stereo not drawn) [Example 108] | 50 to 1000 nM |
| CC(=O)N1CCN(Cc2ccc(/C=C/c3n[nH]c4ccc(OC(C)c5c(Cl)cncc5Cl)cc34)cc2)CC1 (stereo not drawn) [Example 109] | ≤ 10 nM |

Other lines, results leading:

| IC50 | SMILES |
| --- | --- |
| 50 to 1000 nM | C[C@@H](Oc1ccc2[nH]nc(/C(F)=C\c3ccc(CN4CCOCC4)nc3)c2c1)c1c(Cl)cncc1Cl [Example 2] |
| 50 to 1000 nM | C[C@H](Oc1ccc2[nH]nc(/C(F)=C\c3ccc(CN4CCOCC4)nc3)c2c1)c1c(Cl)cncc1Cl [Example 3] |
| 50 to 1000 nM | C[C@@H](Oc1ccc2[nH]nc(/C(F)=C/c3ccc(CN4CCOCC4)nc3)c2c1)c1c(Cl)cncc1Cl [Example 4] |
| 50 to 1000 nM | C[C@H](Oc1ccc2[nH]nc(/C(F)=C/c3ccc(CN4CCOCC4)nc3)c2c1)c1c(Cl)cncc1Cl [Example 5] |
| 50 to 1000 nM | C[C@H](Oc1ccc2[nH]nc(/C(O)=C/c3ccc(CN4CCOCC4)nc3)c2c1)c1c(Cl)cncc1Cl [Example 6] |
| 10 to 50 nM | CC(Oc1ccc2[nH]nc(/C(F)=C/c3ccc(CN4CCC(CO)CC4)nc3)c2c1)c1c(Cl)cncc1Cl (stereo not drawn) [Example 9] |
| 10 to 50 nM | CC(Oc1ccc2[nH]nc(/C(F)=C/c3ccc(CNC4CCOCC4)nc3)c2c1)c1c(Cl)cncc1Cl (stereo not drawn) [Example 10] |
| 50 to 1000 nM | CC(Oc1ccc2[nH]nc(/C(F)=C/c3ccc(CNCCN4CCOCC4)nc3)c2c1)c1c(Cl)cncc1Cl (stereo not drawn) [Example 11] |
| 10 to 50 nM | CC(Oc1ccc2[nH]nc(/C(F)=C/c3ccc(CN4CCC(O)C4)nc3)c2c1)c1c(Cl)cncc1Cl (stereo not drawn) [Example 12] |
| 50 to 1000 nM | CC(Oc1ccc2[nH]nc(/C(F)=C/c3ccc(CN4CCOCC4)nn3)c2c1)c1c(Cl)cncc1Cl (stereo not drawn) [Example 13] |
| ≤ 10 nM | CCN(Cc1ccc(/C(F)=C/c2n[nH]c3ccc(O[C@H](C)c4c(Cl)cncc4Cl)cc23)cn1)C1CCOCC1 [Example 18b] |
| 10 to 50 nM | C[C@H](Oc1ccc2[nH]nc(/C=C(\F)c3ccc(CN4CCC(CO)CC4)nc3)c2c1)c1c(Cl)cncc1Cl [Example 22] |
| ≤ 10 nM | C[C@H](Oc1ccc2[nH]nc(/C=C(\F)c3ccc(CN4CCC(O)C4)nc3)c2c1)c1c(Cl)cncc1Cl (stereo partly drawn) [Example 23] |
| ≤ 10 nM | C[C@@H](Oc1ccc2[nH]nc(/C=C(\F)c3ccc(CN4CCN(CCO)CC4)nc3)c2c1)c1c(Cl)cncc1Cl [Example 27] |
| ≤ 10 nM | C[C@@H](Oc1ccc2[nH]nc(/C=C(\F)c3ccc(CN4CCC(O)C4)nc3)c2c1)c1c(Cl)cncc1Cl (stereo partly drawn) [Example 31] |
| ≤ 10 nM | CC(Oc1ccc2[nH]nc(/C=C/c3ccc(CN4CCOCC4)nc3)c2c1)c1c(Cl)cncc1Cl (stereo not drawn) [Example 48] |
| ≤ 10 nM | CC(Oc1ccc2[nH]nc(/C=C/c3cncc(CN4CCOCC4)c3)c2c1)c1c(Cl)cncc1Cl (stereo not drawn) [Example 50] |
| ≤ 10 nM | CC(Oc1ccc2[nH]nc(/C=C/c3cnc(CN4CCOCC4)nc3)c2c1)c1c(Cl)cncc1Cl (stereo not drawn) [Example 51] |
| 50 to 1000 nM | CC(Oc1ccc2[nH]nc(/C=C/c3ncc(CN4CCOCC4)cn3)c2c1)c1c(Cl)cncc1Cl (stereo not drawn) [Example 52] |
| 50 to 1000 nM | CC(Oc1ccc2[nH]nc(/C=C/c3ccc(CN4CCOCC4)cc3Cl)c2c1)c1c(Cl)cncc1Cl (stereo not drawn) [Example 55] |
| 50 to 1000 nM | Cc1cc(/C=C/c2n[nH]c3ccc(OC(C)c4c(Cl)cncc4Cl)cc23)ccc1CN1CCOCC1 (stereo not drawn) [Example 58] |
| 50 to 1000 nM | CC(Oc1ccc2[nH]nc(/C=C/c3ccc(CN4CCOCC4)cc3C#N)c2c1)c1c(Cl)cncc1Cl (stereo not drawn) [Example 60] |
| 50 to 1000 nM | CC(Oc1ccc2[nH]nc(/C=C/c3cc(N)c(CN4CCOCC4)cc3F)c2c1)c1c(Cl)cncc1Cl (stereo not drawn) [Example 61] |
| 50 to 1000 nM | CC(Oc1ccc2[nH]nc(/C=C/c3ccc(CN4CCOCC4)c(C(F)(F)F)c3)c2c1)c1c(Cl)cncc1Cl (stereo not drawn) [Example 64] |
| ≤ 10 nM | [2H]C([2H])(c1ccc(/C=C/c2n[nH]c3ccc(OC(C)c4c(Cl)cncc4Cl)cc23)nn1)N1CCOCC1 (stereo not drawn) [Example 65] |
| ≤ 10 nM | CC(Oc1ccc2[nH]nc(/C=C/c3ccc(CN4CCOCC4)nn3)c2c1)c1c(Cl)cncc1Cl (stereo not drawn) [Example 66] |
| ≤ 10 nM | C[C@@H](Oc1ccc2[nH]nc(/C=C/c3ccc(CN4CCOCC4)nn3)c2c1)c1c(Cl)cncc1Cl [Example 67] |
| ≤ 10 nM | CC(Oc1ccc2[nH]nc(/C=C/c3ccc(CNCCN4CCOCC4)cc3)c2c1)c1c(Cl)cncc1Cl (stereo not drawn) [Example 89] |
| ≤ 10 nM | CC(Oc1ccc2[nH]nc(/C=C/c3ccc(CN4CCCOCC4)cc3)c2c1)c1c(Cl)cncc1Cl (stereo not drawn) [Example 100] |
